Measured values from patent US20230233600A1, “IMPROVED VIRUCIDAL FORMULATIONS” (priority 2020, published 2023).
Like-named read-outs stand apart in the source and are kept apart here.

Tested on: SARS-CoV-2
Format: cell-based
Conditions: for LRV (log reduction value), reduction of virus compared to the virus control / Virus Titer: solution at 90%
[1] = incubation 15 seconds at 37° C.
[2] = incubation 15 minutes at 37° C.

CCO [Ethanol]
LRV (log reduction value), reduction of virus compared to the virus control [1]: 4.3
Virus Titer [1]: 0.67 Log10 CCID50 of virus per mL
LRV (log reduction value), reduction of virus compared to the virus control (incubation 5 minutes at 37° C.): >4.3
Virus Titer (incubation 5 minutes at 37° C.): <0.67 Log10 CCID50 of virus per mL
LRV (log reduction value), reduction of virus compared to the virus control [2]: >4.3
Virus Titer [2]: <0.67 Log10 CCID50 of virus per mL
virus titer (baseline reached) (positive control, contact time not given): 0.67 log10 CCID50/ml
